Source: publication PMC10762035, “Molecular basis of human trace amine-associated receptor 1 activation” (Nature Communications, 2024)
Residue numbers refer to the chain shown, from its start. Several values for one entry are separate records, joined by “and”; a condition that tells them apart may be missing. Equal entries are not always repeated.

Columns and labels:
hTA1 F195T = molecular target: T1, hTA1 F195T (Homo sapiens, UniProt Q96RJ0, F195T); assay: GloSensor cAMP accumulation assay, F195T mutant; format: cell-based;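 also: cells transiently co-expressing HA-FLAG-tagged hTA1 and the GloSensor cAMP biosensor, luminescence read 30 min after agonist addition at room temperature, concentration-response fitted by nonlinear regression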
T1 construct: expressed in transfected cells; host or cells: HEK293T
T1 sequence (Q96RJ0 1-339 F195T): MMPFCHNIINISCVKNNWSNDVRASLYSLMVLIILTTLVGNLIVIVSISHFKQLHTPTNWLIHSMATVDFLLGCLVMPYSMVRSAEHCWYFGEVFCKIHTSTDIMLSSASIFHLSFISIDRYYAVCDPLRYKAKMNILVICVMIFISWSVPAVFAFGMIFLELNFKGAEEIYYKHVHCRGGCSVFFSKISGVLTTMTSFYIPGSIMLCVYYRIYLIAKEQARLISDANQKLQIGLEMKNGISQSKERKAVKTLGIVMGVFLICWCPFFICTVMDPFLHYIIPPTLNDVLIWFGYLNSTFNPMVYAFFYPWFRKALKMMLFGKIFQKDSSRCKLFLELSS

hTA1 C88/178S = molecular target: T2, hTA1 C88/178S (Homo sapiens, UniProt Q96RJ0, C178S/C88S); assay: GloSensor cAMP accumulation assay, C88S/C178S double mutant; format: cell-based; conditions: for Normalized Luminescence Counts (N=2): log[Compound], single replicate values
T2 construct: expressed in transfected cells; host or cells: HEK293T
T2 sequence (Q96RJ0 1-339 C88S/C178S): T1 sequence (Q96RJ0 1-339 F195T) with C88S, C178S, T195F

hTA1 T194A = molecular target: T3, hTA1 T194A (Homo sapiens, UniProt Q96RJ0, T194A); assay: GloSensor cAMP accumulation assay, T194A mutant; conditions: for cAMP accumulation response, individual replicate values of the concentration-response curve: hTA1 T194A, log[Agonist], Supplementary Figure 5 source data
T3 sequence (Q96RJ0 1-339 T194A): T1 sequence (Q96RJ0 1-339 F195T) with T194A, T195F

[1] = C88S, C178S, each row is one independent experiment, 3 replicates

Q: Which “increase in potency vs wild type” value (hTA1 F195T; F195T) does the source give for `NCCc1ccccc1` [β-PEA, β-phenethylamine] here?
A: ~ 3.5 fold

Q: What about the “ΔpEC50 values (each mutant value - WT average), Mean” value (hTA1 F195T; F195T mutant minus WT average, Figure 5B) of the same compound?
A: 0.6087 and 0.4606

Q: What about the “pEC50 values, Mean” value (hTA1 F195T; F195T mutant, Figure 5B, each row one independent experiment (3 replicates)) of the same compound?
A: 7.7022 and 7.554

Q: What about the “Emax values, Mean” value (hTA1 F195T; F195T mutant, Figure 5B, β-PEA = 100, each row one independent experiment (3 replicates)) of the same compound?
A: 100

Q: What about the “Span ± SEM (Emax normalized to β-PEA)” value (hTA1 F195T; F195T, n=2) of the same compound?
A: 100

Q: And the “pEC50 ± SEM” value (hTA1 F195T; F195T, n=2)?
A: 7.63 ± 0.07

Q: What about the EC50 (hTA1 F195T; F195T, n=2, read-out: EC50) of the same compound?
A: 0.0235 µM

Q: What about the “Span ± SEM (Emax normalized to β-PEA)” value (hTA1 C88/178S; C88/178S, n=2) of the same compound?
A: 100 ± 2.48

Q: And the “pEC50 ± SEM” value (hTA1 C88/178S; C88/178S, n=2)?
A: 6.88 ± 0.05

Q: And the EC50 (hTA1 C88/178S; C88/178S, n=2, read-out: EC50)?
A: 0.131 µM

Q: What about the “pEC50 values, Mean” value (hTA1 C88/178S; [1]) of the same compound?
A: 6.846 and 6.92

Q: And the “ΔEmax values (each mutant value - WT average), Mean” value (hTA1 C88/178S; [1])?
A: 0

Q: And the “ΔpEC50 values (each mutant value - WT average), Mean” value (hTA1 C88/178S; [1])?
A: -0.2478 and -0.1738

Q: What about the “Normalized Luminescence Counts (N=2)” value (hTA1 C88/178S; C88S, C178S, M = -5) of the same compound?
A: 101.882 and 95.4366 and 102.899 and 85.0446 and 70.847 and 114.648

Q: And the “Normalized Luminescence Counts (N=2)” value (hTA1 C88/178S; C88S, C178S, M = -5.522)?
A: 95.8888 and 94.7581 and 92.1574 and 110.721 and 84.1384 and 118.726

Q: And the “Normalized Luminescence Counts (N=2)” value (hTA1 C88/178S; C88S, C178S, M = -6)?
A: 93.4012 and 85.4861 and 88.3694 and 88.8206 and 85.1957 and 105.284

Q: What about the “Normalized Luminescence Counts (N=2)” value (hTA1 C88/178S; C88S, C178S, M = -6.522) of the same compound?
A: 70.73 and 60.7795 and 60.3272 and 66.7689 and 68.1283 and 68.2793

Q: And the “Normalized Luminescence Counts (N=2)” value (hTA1 C88/178S; C88S, C178S, M = -7)?
A: 45.3449 and 38.504 and 42.0658 and 45.3213 and 30.2174 and 49.8525

Q: And the “Normalized Luminescence Counts (N=2)” value (hTA1 C88/178S; C88S, C178S, M = -7.522)?
A: 20.2426 and 24.5959 and 17.7549 and 22.8165 and 30.2174 and 24.931

Q: And the “Normalized Luminescence Counts (N=2)” value (hTA1 C88/178S; C88S, C178S, M = -8)?
A: 8.37 and 6.617 and 6.9 and 9.072 and 8.317 and 8.6188

Q: And the “Normalized Luminescence Counts (N=2)” value (hTA1 C88/178S; C88S, C178S, M = -8.522)?
A: 1.02 and 2.433 and 0.1154 and 4.692 and 3.483 and 4.843

Q: And the “Normalized Luminescence Counts (N=2)” value (hTA1 C88/178S; C88S, C178S, M = -9)?
A: 0.5677 and 0.7373 and -0.4499 and -0.2925 (2×) and 1.218

Q: And the “Normalized Luminescence Counts (N=2)” value (hTA1 C88/178S; C88S, C178S, M = -9.522)?
A: 0.002362 and 0.3416 and -0.5065 and -0.8967 and 0.3116 and 0.009559

Q: What about the “Normalized Luminescence Counts (N=2)” value (hTA1 C88/178S; C88S, C178S, M = -10) of the same compound?
A: -0.9588 and 0.002362 and -0.3934 and -1.652 and -0.4436 and -1.199

Q: What about the “Normalized Luminescence Counts (N=2)” value (hTA1 C88/178S; C88S, C178S, M = -10.522) of the same compound?
A: -1.185 and -0.563 and -1.0153 and -1.803 and 0.009559 and -1.35

Q: What about the “Normalized Luminescence Counts (N=2)” value (hTA1 C88/178S; C88S, C178S, M = -11) of the same compound?
A: -0.05417 and -0.2238 and 0.4547 and -0.2925 and -1.652 and -0.7456

Q: And the “Normalized Luminescence Counts (N=2)” value (hTA1 C88/178S; C88S, C178S, M = -11.522)?
A: 0.172 and 0.1154 and 0.7939 and 0.1606 and -1.954 and -0.4436

Q: And the “Normalized Luminescence Counts (N=2)” value (hTA1 C88/178S; C88S, C178S, M = -12)?
A: 0.172 and -0.6195 and -0.5065 and -0.1415 and -1.35 and 0.9158

Q: What about the “Normalized Luminescence Counts (N=2)” value (hTA1 C88/178S; C88S, C178S, M = -12.522) of the same compound?
A: -0.2803 and 0.2285 and 0.002362 and -1.199 and 0.4627 and 0.6137

Q: What about the “Emax values, Mean” value (hTA1 C88/178S; C88S, C178S, normalized (β-PEA = 100), each row is one independent experiment, 3 replicates) of the same compound?
A: 100

Q: And the “pEC50 values, Mean” value (hTA1 T194A; T149A (so in the source), single experiments (3 replicates each))?
A: 7.395 and 7.196 and 7.094

Q: What about the “Emax values, Mean” value (hTA1 T194A; T149A (so in the source), single experiments (3 replicates each), β-PEA = 100) of the same compound?
A: 100

Q: What about the EC50 (hTA1 T194A; T194A) of the same compound?
A: 0.0636 µM

Q: And the “Span ± SEM (Emax normalized to β-PEA)” value (hTA1 T194A; T194A)?
A: 100 ± 2.46

Q: And the “pEC50 ± SEM” value (hTA1 T194A; T194A)?
A: 7.23 ± 0.13

Q: What about the “cAMP accumulation response, individual replicate values of the concentration-response curve” value (“cAMP accumulation response” for short) (hTA1 T194A; M = -7.522) of the same compound?
A: 32.1474 and 24.1931 and 33.6304 and 28.9237 and 30.7017 and 33.27 and 42.7604 and 43.2488 and 44.1811

Q: And the “cAMP accumulation response” value (hTA1 T194A; M = -8)?
A: 31.2036 and 13.6773 and 15.1603 and 14.8971 and 13.5142 and 22.7372 and 24.6907 and 22.9592

Q: And the “cAMP accumulation response” value (hTA1 T194A; M = -8.522)?
A: 3.836 and 0.5999 and 3.97 and 8.1802 and 2.846 (2×) and 8.885 and 8.264 and 10.2172

Q: And the “cAMP accumulation response” value (hTA1 T194A; M = -9)?
A: 2.487 and 2.892 and 1.813 and 0.4755 and 2.056 and 3.424 and 1.293 (2×)

Q: And the “cAMP accumulation response” value (hTA1 T194A; M = -9.522)?
A: 1.678 and 0.1954 and 0.8695 and 0.08035 (2×) and -0.5123 and 0.3166 and -0.7046 and 0.139

Q: What about the “cAMP accumulation response” value (hTA1 T194A; M = -10) of the same compound?
A: -0.6135 and -0.209 and 0.1954 and -0.5123 and -0.3148 and -0.08302 and -0.1718 and -0.749

Q: What about the “cAMP accumulation response” value (hTA1 T194A; M = -10.522) of the same compound?
A: -0.4787 and -1.692 and -1.557 and -1.303 (2×) and -1.5 and -0.7934 and -0.6602 and -0.6158

Q: And the “cAMP accumulation response” value (hTA1 T194A; M = -11)?
A: -1.4224 (2×) and -0.7483 and -0.9074 and -0.7099 and -0.4382 and -0.8378 and 0.05017
